Reference: PubChem BioAssay (NCI)
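1) Cells in 96-well plates. 2) Compound, 48 h, 5 concentrations. 3) Linear interpolation between surrounding doses. 4) Unreached endpoint = highest concentration. TGI marks complete inhibition of growth.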

Legend:
Assay in all cases: NCI tumour cell line growth inhibition, 48 h
786-0 renal = test system: 786-0 renal
A498 renal = test system: A498 renal
A549 NSCLC = test system: A549 NSCLC
ACHN renal = test system: ACHN renal
CAKI-1 renal = test system: CAKI-1 renal
CCRF-CEM leukemia = test system: CCRF-CEM leukemia
COLO 205 colon = test system: COLO 205 colon
DLD-1 colon = test system: DLD-1 colon
DMS 114 small cell lung = test system: DMS 114 small cell lung
DMS 273 small cell lung = test system: DMS 273 small cell lung
EKVX NSCLC = test system: EKVX NSCLC
HCC-2998 colon = test system: HCC-2998 colon
HCT-116 colon = test system: HCT-116 colon
HL-60(TB) leukemia = test system: HL-60(TB) leukemia
HOP-92 NSCLC = test system: HOP-92 NSCLC
HT29 colon = test system: HT29 colon
IGROV1 ovarian = test system: IGROV1 ovarian
K-562 leukemia = test system: K-562 leukemia
KM12 colon = test system: KM12 colon
LXFL 529 NSCLC = test system: LXFL 529 NSCLC
M19-MEL melanoma = test system: M19-MEL melanoma
MALME-3M melanoma = test system: MALME-3M melanoma
MOLT-4 leukemia = test system: MOLT-4 leukemia
NCI-H226 lung = test system: NCI-H226 lung
NCI-H23 lung = test system: NCI-H23 lung
NCI-H460 lung = test system: NCI-H460 lung
OVCAR-3 ovarian = test system: OVCAR-3 ovarian
OVCAR-5 ovarian = test system: OVCAR-5 ovarian
OVCAR-8 ovarian = test system: OVCAR-8 ovarian
RPMI-8226 leukemia = test system: RPMI-8226 leukemia
RXF 393 renal = test system: RXF 393 renal
SF-268 CNS = test system: SF-268 CNS
SF-295 CNS = test system: SF-295 CNS
SF-539 CNS = test system: SF-539 CNS
SK-MEL-2 melanoma = test system: SK-MEL-2 melanoma
SK-MEL-28 melanoma = test system: SK-MEL-28 melanoma
SK-MEL-5 melanoma = test system: SK-MEL-5 melanoma
SK-OV-3 ovarian = test system: SK-OV-3 ovarian
SN12C renal = test system: SN12C renal
SNB-19 CNS = test system: SNB-19 CNS
SNB-75 CNS = test system: SNB-75 CNS
SNB-78 CNS = test system: SNB-78 CNS
SR leukemia = test system: SR leukemia
SW-620 colon = test system: SW-620 colon
TK-10 renal = test system: TK-10 renal
U251 CNS = test system: U251 CNS
UACC-257 melanoma = test system: UACC-257 melanoma
UACC-62 melanoma = test system: UACC-62 melanoma
UO-31 renal = test system: UO-31 renal
HOP-62 NSCLC = test system: HOP-62 NSCLC
KM20L2 colon = test system: KM20L2 colon
M14 melanoma = test system: M14 melanoma
OVCAR-4 ovarian = test system: OVCAR-4 ovarian
HCT-15 colon = test system: HCT-15 colon

C=C1C(=O)OC2C1CC[C@H](C)C1(O)C(O)CC(=O)[C@@]21C (stereo partly specified)
TGI (786-0 renal): 66.7 µM
TGI (A498 renal): 36 µM
TGI (A549 NSCLC): > 100 µM
TGI (ACHN renal): 43.4 µM
TGI (CAKI-1 renal): 72.7 µM
TGI (CCRF-CEM leukemia): > 10 µM
TGI (COLO 205 colon): 30.8 µM
TGI (DLD-1 colon): 80.7 µM
TGI (DMS 114 small cell lung): 33.9 µM
TGI (DMS 273 small cell lung): 52.3 µM
TGI (EKVX NSCLC): 45.1 µM
TGI (HCC-2998 colon): 46.6 µM
TGI (HCT-116 colon): 33.9 µM
TGI (HL-60(TB) leukemia): 55.2 µM
TGI (HOP-92 NSCLC): 47.7 µM
TGI (HT29 colon): 48.9 µM
TGI (IGROV1 ovarian): 73.4 µM
TGI (K-562 leukemia): 55.6 µM
TGI (KM12 colon): 34.1 µM
TGI (LXFL 529 NSCLC): > 10 µM
TGI (M19-MEL melanoma): 26.8 µM
TGI (MALME-3M melanoma): 39.2 µM
TGI (MOLT-4 leukemia): 42.7 µM
TGI (NCI-H226 lung): 53.3 µM
TGI (NCI-H23 lung): 40.3 µM
TGI (NCI-H460 lung): > 100 µM
TGI (OVCAR-3 ovarian): 47.8 µM
TGI (OVCAR-5 ovarian): 65.4 µM
TGI (OVCAR-8 ovarian): 42.8 µM
TGI (RPMI-8226 leukemia): 94.8 µM
TGI (RXF 393 renal): > 10 µM
TGI (SF-268 CNS): 54.5 µM
TGI (SF-295 CNS): 61.3 µM
TGI (SF-539 CNS): 40.3 µM
TGI (SK-MEL-2 melanoma): 72.1 µM
TGI (SK-MEL-28 melanoma): 27 µM
TGI (SK-MEL-5 melanoma): 31.4 µM
TGI (SK-OV-3 ovarian): 56 µM
TGI (SN12C renal): 45.1 µM
TGI (SNB-19 CNS): > 100 µM
TGI (SNB-75 CNS): 76.2 µM
TGI (SNB-78 CNS): 84.2 µM
TGI (SR leukemia): 47.9 µM
TGI (SW-620 colon): 44 µM
TGI (TK-10 renal): > 10 µM
TGI (U251 CNS): > 100 µM
TGI (UACC-257 melanoma): 32.6 µM
TGI (UACC-62 melanoma): 25.3 µM
TGI (UO-31 renal): 71.2 µM

COC(=O)C1=C(C)N2CCOC2(C)C(C(=O)OC)C1c1ccc[nH]1 (stereo unspecified)
TGI (A549 NSCLC): > 100 µM
TGI (ACHN renal): > 100 µM
TGI (CAKI-1 renal): > 100 µM
TGI (CCRF-CEM leukemia): > 100 µM
TGI (COLO 205 colon): > 100 µM
TGI (DLD-1 colon): > 100 µM
TGI (DMS 114 small cell lung): > 100 µM
TGI (EKVX NSCLC): > 100 µM
TGI (HCC-2998 colon): > 100 µM
TGI (HCT-116 colon): > 100 µM
TGI (HL-60(TB) leukemia): > 100 µM
TGI (HOP-62 NSCLC): > 100 µM
TGI (HOP-92 NSCLC): > 100 µM
TGI (HT29 colon): > 100 µM
TGI (IGROV1 ovarian): > 100 µM
TGI (K-562 leukemia): > 100 µM
TGI (KM12 colon): > 100 µM
TGI (KM20L2 colon): > 100 µM
TGI (LXFL 529 NSCLC): > 100 µM
TGI (M14 melanoma): > 100 µM
TGI (M19-MEL melanoma): > 100 µM
TGI (MOLT-4 leukemia): > 100 µM
TGI (NCI-H226 lung): > 100 µM
TGI (NCI-H23 lung): > 100 µM
TGI (NCI-H460 lung): > 100 µM
TGI (OVCAR-3 ovarian): > 100 µM
TGI (OVCAR-4 ovarian): > 100 µM
TGI (OVCAR-8 ovarian): > 100 µM
TGI (RPMI-8226 leukemia): > 100 µM
TGI (RXF 393 renal): > 100 µM
TGI (SF-268 CNS): > 100 µM
TGI (SF-295 CNS): > 100 µM
TGI (SF-539 CNS): > 100 µM
TGI (SK-MEL-2 melanoma): > 100 µM
TGI (SK-MEL-28 melanoma): > 100 µM
TGI (SK-MEL-5 melanoma): > 100 µM
TGI (SNB-19 CNS): > 100 µM
TGI (SNB-75 CNS): 82.9 µM
TGI (SR leukemia): > 100 µM
TGI (SW-620 colon): > 100 µM
TGI (TK-10 renal): > 100 µM
TGI (UACC-257 melanoma): > 100 µM
TGI (UACC-62 melanoma): > 100 µM
TGI (UO-31 renal): > 100 µM

Cn1c(=O)c2ccccc2c2nc3ccccc3nc21
TGI (786-0 renal): > 100 µM
TGI (A549 NSCLC): > 100 µM
TGI (ACHN renal): > 100 µM
TGI (COLO 205 colon): > 100 µM
TGI (DMS 114 small cell lung): > 100 µM
TGI (DMS 273 small cell lung): > 100 µM
TGI (EKVX NSCLC): > 100 µM
TGI (HCC-2998 colon): > 100 µM
TGI (HCT-116 colon): > 100 µM
TGI (HCT-15 colon): > 100 µM
TGI (HT29 colon): > 100 µM
TGI (IGROV1 ovarian): > 100 µM
TGI (K-562 leukemia): > 100 µM
TGI (KM12 colon): > 100 µM
TGI (KM20L2 colon): > 100 µM
TGI (LXFL 529 NSCLC): > 100 µM
TGI (M19-MEL melanoma): > 100 µM
TGI (MALME-3M melanoma): > 100 µM
TGI (MOLT-4 leukemia): > 100 µM
TGI (NCI-H226 lung): > 100 µM
TGI (NCI-H23 lung): > 100 µM
TGI (OVCAR-5 ovarian): > 100 µM
TGI (OVCAR-8 ovarian): > 100 µM
TGI (RPMI-8226 leukemia): > 100 µM
TGI (RXF 393 renal): > 100 µM
TGI (SF-268 CNS): > 100 µM
TGI (SF-295 CNS): > 100 µM
TGI (SF-539 CNS): > 100 µM
TGI (SK-MEL-2 melanoma): > 100 µM
TGI (SK-MEL-28 melanoma): > 100 µM
TGI (SK-MEL-5 melanoma): > 100 µM
TGI (SK-OV-3 ovarian): > 100 µM
TGI (SN12C renal): > 100 µM
TGI (SNB-19 CNS): > 100 µM
TGI (SNB-75 CNS): 58.9 µM
TGI (SNB-78 CNS): > 100 µM
TGI (SR leukemia): > 100 µM
TGI (SW-620 colon): > 100 µM
TGI (TK-10 renal): > 100 µM
TGI (U251 CNS): > 100 µM
TGI (UACC-257 melanoma): > 100 µM
TGI (UACC-62 melanoma): > 100 µM
TGI (UO-31 renal): > 100 µM
